Paper PMC9228535, “Antistaphylococcal Activities and ADME-Related Properties of Chlorinated Arylcarbamoylnaphthalenylcarbamates” (Pharmaceuticals, 2022)
Values after ≈ are worked out from the molar mass of the structure shown. Read-outs that look alike come from different tables or passages of the source.

Experiments:
[1] = Lipophilicity determination by RP-HPLC (log k, log D); format: physicochemical; details: for log D6.5 / log D7.4 / log k: RP-HPLC; for log D6.5: MeOH 72%/acetate buffered saline pH 6.5; for log D7.4: MeOH 72%/acetate buffered saline pH 7.4; for log k: MeOH 72%/water 28%
Procedure: Lipophilicity was measured by reversed-phase high performance liquid chromatography (RP-HPLC) under isocratic conditions with methanol as the organic modifier in the aqueous mobile phase and the logarithm of the capacity factor k was calculated, which is used as the lipophilicity index converted to the log P scale. In addition to the log k values, the logarithm of the distribution coefficient DpH at pH 6.5 and 7.4 was determined to clarify the behavior of the compounds under physiological conditions and possible ionization. Instead of water, a buffer of suitable pH was used as part of the mobile phase. In addition to the above-mentioned experimental methods, commercially available ChemBioDraw Ultra 13.0 and ACD/Percepta ver. […] In addition to lipophilicity, other parameters discussed in Ro5, such as molecular weight, number of H-bond donors/acceptors, as well as parameters not reported in Ro5, but characterizing the physicochemical properties of the prepared molecules, such as number of rotatable bonds, were predicted using ACD/Percepta. Moreover, for each R substituent, bulkiness expressed as molar volume (MV [cm^3]), a parameter describing the tail length/branching of each carbamates, was calculated.
A HPLC separation module Agilent 1200 Series (Agilent Technologies, Santa Clara, CA, USA) equipped with a Dual Absorbance Detector (DAD SL G1315C, Agilent Technologies) was used. A chromatographic column Symmetry® C18 5 μm, 4.6 × 250 mm, Part No. W21751W016 (Waters Corp, Milford, MA, USA) was used. The HPLC separation process was monitored by ChemStation for LC 3D systems (Agilent Technologies). […] The total flow of the column was 1.0 mL/min, injection 20 μL, column temperature 40 °C, and sample temperature 10 °C. The detection wavelength of 210 nm was chosen. A KI methanolic solution was used for the determination of the dead times (tD). Retention times (tR) were measured in minutes. The capacity factors k were calculated according to the formula k = (tR − tD)/tD, where tR is the retention time of the solute, and tD is the dead time obtained using an unretained analyte. The distribution coefficients DpH were calculated according to the formula DpH = (tR − tD)/tD. Each experiment was repeated three times.

MRSA 63718 [2] = experiment: MIC, microtitration broth method; format: cell-based; details: Staphylococcus aureus
Procedure: (§1) All the investigated compounds were screened for in vitro antibacterial activity against the reference and quality control strain Staphylococcus aureus ATCC 29213 and clinical isolates of methicillin-resistant S. aureus (MRSA) 63718, SA 630, and SA 3202 [14]. Activities are expressed as the minimum inhibitory concentrations (MICs), see Table 2. In addition to the MICs, the minimum bactericidal concentrations (MBCs) were also determined.
(§2) In vitro antibacterial activity of the synthesized compounds was evaluated against representatives of multidrug-resistant bacteria, three clinical isolates of methicillin-resistant S. aureus: clinical isolate of animal origin, MRSA 63718 (Department of Infectious Diseases and Microbiology, Faculty of Veterinary Medicine, University of Veterinary Sciences Brno, Czech Republic), carrying the mecA gene; and MRSA SA 630 [46] and MRSA SA 3202 [46] (National Institute of Public Health, Prague, Czech Republic), both of human origin. Suspected colonies were confirmed by PCR; a 108bp fragment specific for S. aureus was detected. All isolates were tested for the presence of the mecA gene encoding methicillin resistance. […] Vancomycin-susceptible methicillin-susceptible S. aureus (VS-MSSA) ATCC 29213, obtained from the American Type Culture Collection, was used as the reference and quality control strain. Enterococcus faecalis ATCC 29212 was obtained from the American Type Culture Collection and used as the reference and quality control strain.
(§3) The minimum inhibitory concentrations (MICs) were evaluated by the microtitration broth method according to the CLSI [64, 65] with some modifications. The compounds were dissolved in DMSO (Sigma, St. Louis, MO, USA) to get a concentration […] and diluted in a microtitration plate in an appropriate medium, namely, Cation Adjusted Mueller–Hinton (CaMH, Oxoid, Basingstoke, UK) for staphylococci (S. aureus ATCC 29213, clinical isolates of MRSA 63718, SA 630, and SA 3202) and brain heart infusion (BHI, Oxoid) for E. faecalis ATCC 29212, to reach the final concentration of 256-0.125 µg/mL. The plate was inoculated by the tested microorganisms. The final concentration of bacterial cells was 10^5 for bacteria. Ampicillin (Sigma) was used as reference drugs. A drug-free control and a sterility control were included. The plates were incubated for 24 h at 37 °C for staphylococci and E. faecalis ATCC 29212 (stability evaluation of the carbamates, see Supplementary materials, Table S1). […] The experiments were repeated three times.

MRSA SA 3202 [3] = experiment: MIC, microtitration broth method; format: cell-based; details: Staphylococcus aureus
Procedure: as §1, §2, §3

MRSA SA 630 [4] = experiment: MIC, microtitration broth method; format: cell-based; details: Staphylococcus aureus
Procedure: as §1, §2, §3

[5] = system: Staphylococcus aureus ATCC 29213; experiment: MIC, microtitration broth method; format: cell-based; details: ATCC29213, SA = S. aureus ATCC 29213, 24 h, read-out: MIC
Procedure: as §1, §2, §3

[6] = system: Enterococcus faecalis ATCC 29212; experiment: MIC, microtitration broth method; format: cell-based; details: for MIC: ATCC29212, EF = Enterococcus faecalis, 24 h, read-out: MIC
Procedure: as §2, §3

THP-1 cells = experiment: In vitro cytotoxicity assay (WST-1); format: cell-based; details: Homo sapiens; THP-1, 24 h, ± SD, n = 6; read-out: IC50
Procedure: Preliminary in vitro cytotoxicity screening of the investigated compounds was performed using human monocytic leukemia THP-1 cells, see Table 2. The ability to inhibit the human cancer cell viability (IC50) of the compounds was compared to camptothecin toxicity (0.16 ± 0.07 μM). […] However, these values are up to two orders of magnitude higher than their significant antistaphyloccocal concentrations. This fact is also taken into account in the calculated selectivity index (SI), Table 2, where for only three compounds the SI is <20, while for the rest of the agents SI is >20, and for some derivatives even 100 and more. Thus, based on all these observations, it can be concluded that all the tested derivatives can be considered as in vitro non-toxic compounds for the subsequent design of new therapeutic agents.
The human THP-1 cell line (European Collection of Cell Cultures, Salisbury, UK) was cultured in RPMI 1640 medium supplemented with 10% fetal bovine serum, 2% L-glutamine, 1% penicillin, and streptomycin at 37 °C with 5% CO2. Cells were passaged at approximately 1-week intervals. All the tested compounds were prepared and dissolved as mentioned in our previous work.

[7] = system: S. aureus and MRSA isolates; experiment: Antistaphylococcal MIC, summary over strains; format: cell-based, Staphylococcus aureus
Procedure: as §1, with “determined. […] MBC values that meet this requirement, i.e., the compound is bactericidal, are indicated in bold in Table 2.” for “determined.”
as §2
The minimum inhibitory concentrations (MICs) were evaluated by the microtitration broth method according to the CLSI [64, 65] with some modifications. […]

MRSA 63718 [8] = experiment: MBC, agar aliquot subculture method; format: cell-based; details: Staphylococcus aureus, MRSA
Procedure: as §1
(§4) For the S. aureus and MRSA isolates, the agar aliquot subculture method was used as a test for bactericidal agents. After the MIC value determination, the inoculum was transferred to Mueller–Hinton (Oxoid) agar using a multipoint inoculator. The plates were incubated in a thermostat at 37 °C for 24 h. The lowest concentration of test compound at which ≤5 colonies were obtained was then evaluated as MBC, corresponding to a 99.9% decrease in CFU relative to the original inoculum.

MRSA SA 3202 [9] = experiment: MBC, agar aliquot subculture method; format: cell-based; details: Staphylococcus aureus
Procedure: as §1, §4

MRSA SA 630 [10] = experiment: MBC, agar aliquot subculture method; format: cell-based; details: Staphylococcus aureus
Procedure: as §1, §4

[11] = system: Staphylococcus aureus ATCC 29213; experiment: MBC, agar aliquot subculture method; format: cell-based; details: ATCC29213, SA = S. aureus ATCC 29213, read-out: MBC
Procedure: as §1, §4

MRSA 63718 [12] = system: MRSA 63718; parameters: method as in PMID 25692135; details: cited from earlier work

Compound | log D6.5 [1] | log D7.4 [1] | log k [1] | MIC [5] [µM] | MIC [6] [µM] | IC50 (THP-1 cells) [µM] | MIC (MRSA 63718 [2]; MRSA, 24 h) [µM] | MIC (MRSA SA 3202 [3]; 24 h) [µM] | MIC (MRSA SA 630 [4]; 24 h) [µM] | MBC (MRSA 63718 [8]) [µM] | MBC (MRSA SA 3202 [9]) [µM] | MBC (MRSA SA 630 [10]) [µM] | MBC [11] [µM] | further results
O=C(Nc1cc(Cl)c(Cl)cc1Cl)c1ccc2ccccc2c1O [Compound 1, 1-hydroxy-N-(2,4,5-trichlorophenyl)-2-naphthamide] | 0.5782 | 0.5384 | 0.6600 | 698 (≈ 256 µg/mL) | 477 (≈ 175 µg/mL) | > 30 | – | – | – | – | – | – | – | MIC (MRSA 63718 [2]; MRSA1 = MRSA 63718, 24 h, read-out: MIC): 698 µM (≈ 256 µg/mL); MIC (MRSA SA 3202 [3]; MRSA3 = SA 3202, 24 h, read-out: MIC): 698 µM (≈ 256 µg/mL); MIC (MRSA SA 630 [4]; MRSA2 = SA 630, 24 h, read-out: MIC): 698 µM (≈ 256 µg/mL); antistaphylococcal/antibacterial activity (in words) ([7]; S. aureus and MRSA isolates): no antibacterial activity
CCCCNC(=O)Oc1c(C(=O)Nc2cc(Cl)c(Cl)cc2Cl)ccc2ccccc12 [Compound 4, 2-[N-(2,4,5-Trichlorophenyl)carbamoyl]naphthalen-1-yl butyl carbamate] | 0.9980 | 1.1401 | 1.0756 | 0.034 (≈ 0.0158 µg/mL) | 275 (≈ 128 µg/mL) | 3.42 ± 0.1 | 0.135 (≈ 0.0629 µg/mL) | 0.069 (≈ 0.0321 µg/mL) | 0.017 (≈ 0.00792 µg/mL) | 0.268 (≈ 0.125 µg/mL) | 0.069 (≈ 0.0321 µg/mL) | 0.537 (≈ 0.25 µg/mL) | 0.034 (≈ 0.0158 µg/mL) | MIC ([7]; Staphylococcus aureus, read-out: MICs): 0.018 to 0.064 µM (≈ 0.00838 to 0.0298 µg/mL)
O=C(NC1CCCCC1)Oc1c(C(=O)Nc2cc(Cl)c(Cl)cc2Cl)ccc2ccccc12 [Compound 11, 2-[N-(2,4,5-Trichlorophenyl)carbamoyl]naphthalen-1-yl cyclohexyl carbamate] | 1.2952 | 1.2955 | 1.2911 | 0.128 (≈ 0.063 µg/mL) | 65.1 (≈ 32 µg/mL) | 2.76 ± 0.24 | 0.254 (≈ 0.125 µg/mL) | 0.508 (≈ 0.25 µg/mL) | 0.508 (≈ 0.25 µg/mL) | 0.508 (≈ 0.25 µg/mL) | 0.508 (≈ 0.25 µg/mL) | 1.02 (≈ 0.5 µg/mL) | 0.508 (≈ 0.25 µg/mL) | anti-enterococcal activity (in words) ([6]; E. faecalis ATCC 29212): moderate activity
O=C(NC1CCCCCC1)Oc1c(C(=O)Nc2cc(Cl)c(Cl)cc2Cl)ccc2ccccc12 [Compound 12, 2-[N-(2,4,5-Trichlorophenyl)carbamoyl]naphthalen-1-yl cycloheptyl carbamate] | 1.4492 | 1.4527 | 1.4469 | 0.494 (≈ 0.25 µg/mL) | 127 (≈ 64.2 µg/mL) | 3.24 ± 0.12 | 0.247 (≈ 0.125 µg/mL) | 0.494 (≈ 0.25 µg/mL) | 0.494 (≈ 0.25 µg/mL) | 0.247 (≈ 0.125 µg/mL) | 0.494 (≈ 0.25 µg/mL) | 0.494 (≈ 0.25 µg/mL) | 0.494 (≈ 0.25 µg/mL) | lipophilicity (experimental log k/log D, approximate) [1]: ca. 1.45
O=C(NCCc1ccccc1)Oc1c(C(=O)Nc2cc(Cl)c(Cl)cc2Cl)ccc2ccccc12 [Compound 13, 2-[N-(2,4,5-Trichlorophenyl)carbamoyl]naphthalen-1-yl 2-phenylethyl carbamate] | 1.2473 | 1.2470 | 1.2450 | 0.062 (≈ 0.0319 µg/mL) | 125 (≈ 64.2 µg/mL) | 2.79 ± 0.28 | 0.123 (≈ 0.0632 µg/mL) | 0.123 (≈ 0.0632 µg/mL) | 0.062 (≈ 0.0319 µg/mL) | 0.123 (≈ 0.0632 µg/mL) | 0.243 (≈ 0.125 µg/mL) | 0.973 (≈ 0.5 µg/mL) | 0.062 (≈ 0.0319 µg/mL) | –
O=C(NCCCCc1ccccc1)Oc1c(C(=O)Nc2cc(Cl)c(Cl)cc2Cl)ccc2ccccc12 [Compound 14, 2-[N-(2,4,5-Trichlorophenyl)carbamoyl]naphthalen-1-yl 4-phenylbutyl carbamate] | 1.5193 | 1.5191 | 1.5167 | 0.116 (≈ 0.0629 µg/mL) | 118 (≈ 63.9 µg/mL) | 2.73 ± 0.37 | 0.231 (≈ 0.125 µg/mL) | 0.231 (≈ 0.125 µg/mL) | 0.116 (≈ 0.0629 µg/mL) | 0.231 (≈ 0.125 µg/mL) | 0.461 (≈ 0.25 µg/mL) | 0.461 (≈ 0.25 µg/mL) | 0.116 (≈ 0.0629 µg/mL) | lipophilicity (experimental log k/log D, approximate) [1]: ca. 1.25; lipophilicity (experimental log k/log D, approximate) ([1]; listed as 15): ca. 1.52
CN[C@H](CC(C)C)C(=O)N[C@H]1C(=O)N[C@@H](CC(N)=O)C(=O)N[C@H]2C(=O)N[C@H]3C(=O)N[C@H](C(=O)N[C@H](C(=O)O)c4cc(O)cc(O)c4-c4cc3ccc4O)[C@H](O)c3ccc(c(Cl)c3)Oc3cc2cc(c3O[C@@H]2O[C@H](CO)[C@@H](O)[C@H](O)[C@H]2O[C@H]2C[C@](C)(N)[C@H](O)[C@H](C)O2)Oc2ccc(cc2Cl)[C@H]1O [vancomycin] | – | – | – | – | – | – | – | – | – | – | – | – | – | MIC (MRSA 63718 [12]): 2 µg/mL (≈ 1.38 µM)
